# From patent publication EP1066315B1 (University of Dundee, priority 1998, dated 2008)
# Entries after “also recorded” stand apart in the source; their conditions may differ. Non-standard residues stand in square brackets, D forms with d. Residues, ends and D or L forms follow the SMILES beside them. *: point of attachment. Sta = CC(C)C[C@H](N)[C@@H](O)CC(=O)O; Isovaleryl = CC(C)CC(=O)*
# Key:
# [1] = biological target: T1, disrupted lysosomes isolated from the human B cell line EDR (TTCF processing activity) (Homo sapiens, UniProt Q99538); experiment: Digestion of TTCF by disrupted B cell lysosomes, SDS-PAGE readout; format: biochemical; settings: 4 hours at 37°C, Fig 1a; for inhibition of lysosomal digestion of TTCF: inhibitor at 0.1 mg/ml, pH 4.5
# T1 construct: disrupted lysosomes isolated from the human B cell line EDR; endogenous in cells; host or cells: human B cell line EDR, Percoll-gradient lysosomal fraction, disrupted
# T1 sequence (Q99538 26-323 limits assumed): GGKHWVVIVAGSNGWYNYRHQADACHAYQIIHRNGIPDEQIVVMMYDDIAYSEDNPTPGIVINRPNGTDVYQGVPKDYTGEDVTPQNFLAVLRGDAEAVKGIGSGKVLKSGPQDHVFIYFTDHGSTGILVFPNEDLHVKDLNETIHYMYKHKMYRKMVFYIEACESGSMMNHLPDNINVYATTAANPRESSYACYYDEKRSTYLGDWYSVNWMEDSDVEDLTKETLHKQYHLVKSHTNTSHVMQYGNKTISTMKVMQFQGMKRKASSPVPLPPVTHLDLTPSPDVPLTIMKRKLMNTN
# Procedure: The invention will now be described by reference to the following Examples and Figures wherein • Figure 1: Processing of TTCF by a leupeptin-insensitive cysteine endopeptidase activity. (a) TTCF was digested in vitro in the presence of disrupted lysosomes (1-2 µg) in the presence or absence of iodoacetamide (1 mM), leupeptin, E64 or pepstatin (each at 0.1 mg/ml). Digestions were in 0.1 M NH4 acetate at pH 4.5 or Na2HPO4, pH 6.0 or 7.0. After 4 hours at 37°C, the reactions were separated by Tris-tricine SDS-PAGE and stained with Coomassie Blue. (b) Cleavage sites: TTCF digestion products were separated by SDS PAGE and electrophoretically transferred to nitrocellulose membrane. Individual fragments numbered 1-6 were subjected to 5 cycles of Edman degradation. N-terminal sequence obtained is shown in bold following upstream residues from TTCF (tetanus toxin numbering). The N-terminal sequence of His-tagged TTCF was obtained for fragments 1 and 3. (c) Residues Asn 1184 and Glu 1184 in TTCF were mutated to alanine (see Methods) and digestions performed as before. The mutation abolishes cleavage at the mutated site but not at the first site (doublet at 47 kD). In this experiment cleavage of the third site was minimal. • Figure 2: TTCF is processed by an asparaginyl endopeptidase. (a) Chromatography of the TTCF processing activity on Mono-S resin. Fractions eluted by NaCl gradient were incubated with the substrates Z-Ala-Ala-Asn-NHMec or Z-Phe-Arg-NHMec in the presence or absence of E64 (trans-epoxysuccinyl-L-leucylamido-(4-guanidino)butane). […] (b) Fractions as above were incubated with 10 µg TTCF in the presence or absence of E64 for 4 hours at 37°C prior to SDS-PAGE analysis. (c) Each fraction was analysed by SDS-PAGE and Western blotting. Electrophoretically transferred material was probed with an affinity purified antiserum raised against the peptide KGIGSGKVLKSGPQC from human legumain^1. • Figure 3: Peptide inhibitors of AEP block asparaginyl endopeptidase activity and TTCF processing in vitro and in vivo. (a) TTCF was digested with purified AEP (legumain from pig kidney) in the presence or absence of 0.2 mg/ml of the peptides indicated. […] (b) Purified AEP or a crude lysosomal protease mixture were incubated with Z-Ala-Ala-Asn-NHMec, Z-Phe-Arg-NHMec (cathepsins L&B) or Z-Val-Val-Ala NHMec (cathepsin S) in the presence of increasing concentrations of AENK or AEQK. Release of 7-amino-4-methyl coumarin was measured after 10, 20 or 30 minutes. […] At different times the cells were washed, fixed in 0.05 % glutaraldehyde and co-cultured with autologous TTCF specific T cell clones. […] Proteins obtained from commercial sources, as described in the literature or custom peptides were digested with purified pig kidney legumain at pH 5.5 in the presence of 1 mM DTT. […] When present peptide was maintained during antigen pulsing at 1 mg/ml (a) or 2 mg/ml (b). At different times the cells were washed, fixed in 0.05 % glutaraldehyde and antigen presentation measured using proliferation of different autologous TTCF-specific T cell clones. c, AEP pre-processing of TTCF speeds antigen presentation. […] Presentation was measured after 60 minutes of antigen pulsing using EBV B cells.
# […]. […] Nor could we reproduce the lysosomal TTCF digestion pattern or indeed generate any of these fragments using purified cathepsins L, S, B, D or E , all of which have been implicated in the class II MHC antigen processing pathway (reviewed in refs 5 & 6).
# TTCF processing activity. Lysosomal fractions from the human B cell line EDR were prepared on 27 % Percoll density gradients as previously described^8 using ^125I-labelled transferrin (internalised for 30 minutes at 37°C) and β-hexosaminidase to identify endosomal/plasma membrane and lysosomal fractions respectively. The peak of lysosomes was collected by centrifugation at 40,000 g for 1 hour, removed from the underlying Percoll pellet, collected again at 50,000 g for 1 hour and stored frozen. […]
# [2] = system: Asparagine endopeptidase (AEP); experiment: AEP
# [3] = Mono-S fractions of the partially purified TTCF processing activity from a crude B cell lysosome fraction; settings: human, 37°C, up to 4 hours
# AEP = experiment: Purified AEP; settings: up to 30 minutes
# [4] = B cell lysosomal fractions (crude lysosomal protease mixture); settings: human, up to 30 minutes
# [5] = crude lysosomal protease mixture (B cell lysosomal fractions); settings: human, up to 30 minutes
compound,measurement,setting,value
NC(=O)CI [iodoacetamide],sensitivity of lysosomal TTCF digestion activity to inhibitor,[1]; iodoacetamide 1 mM,sensitive
"CC(=O)N[C@@H](CC(C)C)C(=O)N[C@@H](CC(C)C)C(=O)N[C@H](C=O)CCCNC(=N)N [leupeptin, acetyl-leucyl-leucyl-arginal]",inhibition of lysosomal digestion of TTCF,[1],could not inhibit; also recorded: completely resistant
CC(C)CC(=O)N[C@H](C(=O)N[C@H](C(=O)N[C@@H](CC(C)C)[C@@H](O)CC(=O)N[C@@H](C)C(=O)N[C@@H](CC(C)C)[C@@H](O)CC(=O)O)C(C)C)C(C)C [pepstatin] (Isovaleryl-VV[Sta]A[Sta]-OH),inhibition of lysosomal digestion of TTCF,[1],could not inhibit
QQQHLFGSN(CHO)VTDCSGNFCLFR,cleaved bond,[2],N637-F638
same,not cleaved,[2],fragments VTDCSGNFCLFR and QQQHLFGSN(CHO) not observed
QQQHLFGSNVTDCSGNFCLFRKKK,cleaved bond,[2],N630-V631; also recorded: N637-F638
Z-Ala-Ala-Asn-7-(4-methyl)coumarylamide,cleaved bond,[3],Asn-7-(4-methyl)coumarylamide
same,cleaved bond,AEP,"Asn-NHMec, 10 minutes"
Z-Phe-Arg-NHMec,cleaved bond,[4],Arg-NHMec
same,cleaved bond,[5],Arg-NHMec
Z-Val-Ala-Asn-NHMec,cleaved bond,[4],Asn-NHMec
